Results: ChEMBL document CHEMBL6109097, “Structure-based design of novel 2,4,5-trisubstituted pyrimidine derivatives as potent HIV-1 NNRTIs by exploiting the tolerant regions in NNTRIs binding pocket” (Eur J Med Chem, 2025)

Tests used:
[1] = Selectivity index, ratio of CC50 for cytotoxicity against human MT4 cells assessed as reduction in cell viability to EC50 for antiviral activity against human MT4 cells assessed as protection against virus-induced cytopathic effect; format: toxicity, cell-based; details: read-out: Ratio CC50/EC50
[2] = system: Human immunodeficiency virus 1; assay: Antiviral activity against wild type HIV-1 IIIB infected in human MT4 cells assessed as protection against virus-induced cytopathic effect incubated for 5 days by MTT assay; format: functional, organism-based; details: Human immunodeficiency virus 1, IIIB, MT4, 120 h
[3] = Cytotoxicity against human MT4 cells assessed as reduction in cell viability incubated for 5 days by MTT assay; format: toxicity, cell-based; details: time 5 day
[4] = system: Human immunodeficiency virus 1; assay: Antiviral activity against NNRTI-resistant HIV-1 harboring RES056 mutant infected in human MT4 cells assessed as protection against virus-induced cytopathic effect incubated for 5 days by MTT assay; format: functional, organism-based; details: Human immunodeficiency virus 1, MT4, 120 h
[5] = system: Human immunodeficiency virus 1; assay: Antiviral activity against NNRTI-resistant HIV-1 harboring Y188L mutant infected in human MT4 cells assessed as protection against virus-induced cytopathic effect incubated for 5 days by MTT assay; format: functional, organism-based; details: Human immunodeficiency virus 1, MT4, 120 h
[6] = system: Human immunodeficiency virus 1; assay: Antiviral activity against NNRTI-resistant HIV-1 harboring K103N mutant infected in human MT4 cells assessed as protection against virus-induced cytopathic effect incubated for 5 days by MTT assay; format: functional, organism-based; details: Human immunodeficiency virus 1, MT4, 120 h
[7] = system: Human immunodeficiency virus 1; assay: Antiviral activity against NNRTI-resistant HIV-1 harboring Y181C mutant infected in human MT4 cells assessed as protection against virus-induced cytopathic effect incubated for 5 days by MTT assay; format: functional, organism-based; details: Human immunodeficiency virus 1, MT4, 120 h
[8] = system: Human immunodeficiency virus 1; assay: Antiviral activity against NNRTI-resistant HIV-1 harboring L100I mutant infected in human MT4 cells assessed as protection against virus-induced cytopathic effect incubated for 5 days by MTT assay; format: functional, organism-based; details: Human immunodeficiency virus 1, MT4, 120 h
[9] = target: Human immunodeficiency virus type 1 reverse transcriptase (Human immunodeficiency virus 1, UniProt Q72547); assay: Inhibition of wild type HIV-1 reverse transcriptase assessed as reduction in biotin-dUTP incorporation in cDNA preincubated with compound for 1 hr in presence of biotin-labeled dNTPs by ELISA
[10] = system: Human immunodeficiency virus 1; assay: Antiviral activity against NNRTI-resistant HIV-1 harboring F227L/V106A double mutant infected in human MT4 cells assessed as protection against virus-induced cytopathic effect incubated for 5 days by MTT assay; format: functional, organism-based; details: Human immunodeficiency virus 1, MT4, 120 h
[11] = system: Human immunodeficiency virus 1; assay: Antiviral activity against NNRTI-resistant HIV-1 harboring E138K mutant infected in human MT4 cells assessed as protection against virus-induced cytopathic effect incubated for 5 days by MTT assay; format: functional, organism-based; details: Human immunodeficiency virus 1, MT4, 120 h
[12] = system: Human immunodeficiency virus 1; assay: Potency index, ratio of efavirenz EC50 to test compound EC50 for antiviral activity against NNRTI-resistant HIV-1 harboring F227L/V106A double mutant infected in human MT4 cells assessed as protection against virus-induced cytopathic effect incubated for 5 days by MTT assay; format: functional; details: time 5 day
[13] = system: Human immunodeficiency virus 1; assay: Potency index, ratio of efavirenz EC50 to test compound EC50 for antiviral activity against NNRTI-resistant HIV-1 harboring K103N mutant infected in human MT4 cells assessed as protection against virus-induced cytopathic effect incubated for 5 days by MTT assay; format: functional; details: time 5 day
[14] = system: Human immunodeficiency virus 1; assay: Potency index, ratio of efavirenz EC50 to test compound EC50 for antiviral activity against NNRTI-resistant HIV-1 harboring L100I mutant infected in human MT4 cells assessed as protection against virus-induced cytopathic effect incubated for 5 days by MTT assay; format: functional; details: time 5 day

| SMILES | selectivity ratio [1] | EC50 [2] [nM] | CC50 at 120 h [3] [nM] | EC50 [4] [nM] | EC50 [5] [nM] | EC50 [6] [nM] | EC50 [7] [nM] | EC50 [8] [nM] | IC50 [9] [nM] | EC50 [10] [nM] | EC50 [11] [nM] | Ratio EC50 [12] | Ratio EC50 [13] | Ratio EC50 [14] |
| --- | --- | --- | --- | --- | --- | --- | --- | --- | --- | --- | --- | --- | --- | --- |
| Cc1cc(/C=C/C#N)cc(C)c1Oc1nc(Nc2ccc(N3CCS(=O)(=O)CC3)c(F)c2)ncc1-c1cnc(N)nc1 | 156 | 6 | 1000 |  |  |  |  |  |  |  |  |  |  |  |
| O=C1Nc2ccc(Cl)cc2[C@@](C#CC2CC2)(C(F)(F)F)O1 [EFAVIRENZ] |  | 5.2 | > 6400 | 373 | 280 | 78 | 9.8 |  |  |  |  |  |  |  |
| Cc1cc(/C=C/C#N)cc(C)c1Oc1nc(Nc2ccc(N3CCN(S(C)(=O)=O)CC3)c(F)c2)ncc1-c1ccc(N)nc1 | 13000 | 5.8 | 75600 | 100 | 700 | 6.6 | 180 | 43 | 270 | 180 | 29.8 |  |  |  |
| Cc1cc(/C=C/C#N)cc(C)c1Oc1nc(Nc2ccc(N3CCS(=O)(=O)CC3)c(F)c2)ncc1-c1cncnc1 | > 40500 | 5.4 | > 219000 | 1350 | 1270 | 6.7 | 170 | 90 | 200 | 280 | 53 |  |  |  |
| Cc1cc(/C=C/C#N)cc(C)c1Oc1nc(Nc2ccc(N3CCN(S(C)(=O)=O)CC3)c(F)c2)ncc1-c1cccnc1 | > 2140 | 19 | > 41700 | 3740 | 2030 | 24 | 400 | 230 | 630 | 640 | 57 |  |  |  |
| Cc1cc(/C=C/C#N)cc(C)c1Oc1nc(Nc2ccc(N3CCS(=O)(=O)CC3)c(C#N)c2)ncc1-c1cccnc1 | 1340 | 16 | 21800 | 990 | 720 | 9.9 | 140 | 54 | 490 | 600 | 50 |  |  |  |
| Cc1cc(/C=C/C#N)cc(C)c1Oc1nc(Nc2ccc(N3CCN(S(C)(=O)=O)CC3)c(C#N)c2)ncc1-c1cnc(F)nc1 | 784 | 39 | 30900 |  |  |  |  |  |  |  |  |  |  |  |
| Cc1cc(/C=C/C#N)cc(C)c1Oc1nc(Nc2ccc(N3CCN(S(C)(=O)=O)CC3)c(F)c2)ncc1-c1cnc(F)nc1 | 95 | 6.3 | 600 |  |  |  |  |  |  |  |  |  |  |  |
| Cc1cc(/C=C/C#N)cc(C)c1Oc1nc(Nc2ccc(N3CCN(S(C)(=O)=O)CC3)c(C#N)c2)ncc1-c1cncnc1 | > 24200 | 8.5 | > 206000 | 770 | 890 | 13 | 99 | 39 | 290 | 190 | 49 |  |  |  |
| Cc1cc(/C=C/C#N)cc(C)c1Oc1nc(Nc2ccc(N3CCN(S(C)(=O)=O)CC3)c(C#N)c2)ncc1-c1cccnc1 | 22700 | 7.9 | 179000 | 800 | 550 | 11 | 150 | 48 | 330 | 230 | 37 |  |  |  |
| Cc1cc(/C=C/C#N)cc(C)c1Oc1nc(Nc2ccc(N3CCS(=O)(=O)CC3)c(F)c2)ncc1-c1ccc(N)nc1 | 239 | 3.5 | 800 |  |  |  |  |  |  |  |  |  |  |  |
| Cc1cc(/C=C/C#N)cc(C)c1Oc1nc(Nc2ccc(N3CCS(=O)(=O)CC3)c(F)c2)ncc1-c1cnc(F)nc1 | 2270 | 13 | 28800 | 1590 | 6500 | 13 | 120 | 51 | 350 | 210 | 55 |  |  |  |
| Cc1cc(/C=C/C#N)cc(C)c1Oc1nc(Nc2ccc(N3CCS(=O)(=O)CC3)c(C#N)c2)ncc1-c1ccc(F)nc1 | > 7830 | 27 | > 210000 |  |  |  |  |  |  |  |  |  |  |  |
| Cc1cc(C#N)cc(C)c1Oc1nc(Nc2ccc(C#N)cc2)nc(N)c1Br [ETRAVIRINE] |  | 3.8 | > 4600 | 52 | 23 |  |  | 6.5 |  | 8.5 | 9 |  |  |  |
| Cc1cc(/C=C/C#N)cc(C)c1Oc1nc(Nc2ccc(N3CCN(S(C)(=O)=O)CC3)c(C#N)c2)ncc1-c1ccc(F)nc1 | > 7620 | 26 | > 200000 |  |  |  |  |  |  |  |  |  |  |  |
| Cc1ccnc2c1NC(=O)c1cccnc1N2C1CC1 [NEVIRAPINE] |  |  | > 15000 | > 15000 | > 1500 | 5740 | 6590 | 1760 |  | 10300 | 223 |  |  |  |
| Cc1cc(/C=C/C#N)cc(C)c1Oc1nc(Nc2ccc(N3CCS(=O)(=O)CC3)c(F)c2)ncc1-c1ccc(F)nc1 | > 221 | 960 | > 212000 |  |  |  |  |  |  |  |  |  |  |  |
| Cc1cc(/C=C/C#N)cc(C)c1Oc1nc(Nc2ccc(N3CCS(=O)(=O)CC3)c(C#N)c2)ncc1-c1cnc(N)nc1 | 22 | 31 | 800 |  |  |  |  |  |  |  |  |  |  |  |
| Cc1cc(/C=C/C#N)cc(C)c1Oc1nc(Nc2ccc(N3CCN(S(C)(=O)=O)CC3)c(C#N)c2)ncc1-c1cnc(N)nc1 | 5390 | 7.2 | 38600 | 280 | > 38600 | 6.7 | 42 | 27 |  | 96 | 39 |  |  |  |
| Cc1cc(/C=C/C#N)cc(C)c1Oc1nc(Nc2ccc(N3CCN(S(C)(=O)=O)CC3)c(F)c2)ncc1-c1cnc(N)nc1 | 918 | 7.3 | 6700 |  |  |  |  |  |  |  |  |  |  |  |
| Cc1cc(/C=C/C#N)cc(C)c1Oc1nc(Nc2ccc(N3CCN(S(C)(=O)=O)CC3)c(C#N)c2)ncc1-c1ccc(N)nc1 | 25300 | 6.4 | 161000 | 210 | 250 | 6.2 | 34 | 9.4 | 410 | 30 | 30 | 7 | 12.6 | 3.7 |
| Cc1cc(/C=C/C#N)cc(C)c1Oc1nc(Nc2ccc(N3CCS(=O)(=O)CC3)c(C#N)c2)ncc1-c1cncnc1 | 258 | 9.1 | 2400 |  |  |  |  |  |  |  |  |  |  |  |
| Cc1cc(/C=C/C#N)cc(C)c1Oc1nc(Nc2ccc(N3CCS(=O)(=O)CC3)c(C#N)c2)ncc1-c1ccc(N)nc1 | 16 | 41 | 700 |  |  |  |  |  |  |  |  |  |  |  |
| Cc1cc(/C=C/C#N)cc(C)c1Oc1nc(Nc2ccc(N3CCN(S(C)(=O)=O)CC3)c(F)c2)ncc1-c1ccc(F)nc1 | > 11600 | 17 | > 202000 | 8280 | 4540 | 34 | 460 | 140 |  | 350 | 51 |  |  |  |
| Cc1cc(/C=C/C#N)cc(C)c1Oc1nc(Nc2ccc(N3CCS(=O)(=O)CC3)c(C#N)c2)ncc1-c1cnc(F)nc1 | 110 | 220 | 23900 |  |  |  |  |  |  |  |  |  |  |  |
| Cc1cc(/C=C/C#N)cc(C)c1Oc1nc(Nc2ccc(N3CCN(S(C)(=O)=O)CC3)c(F)c2)ncc1-c1cncnc1 | > 12900 | 16 | > 208000 | 1160 | 2200 | 28 | 200 | 110 | 490 | 313 | 96 |  |  |  |
| Cc1cc(/C=C/C#N)cc(C)c1Oc1nc(Nc2ccc(N3CCS(=O)(=O)CC3)c(F)c2)ncc1-c1cccnc1 | 4850 | 17 | 82800 | 4520 | 1560 | 12 | 380 | 130 |  | 420 | 64 |  |  |  |
